In patent US20220233512A1, “INHIBITING AN IMMUNE RESPONSE MEDIATED BY ONE OR MORE OF TLR2, RAGE, CCR5, CXCR4 AND CD4” (priority 2020, published 2022):

Molecular target: T1, mu opiate receptor (MOR) (Rattus norvegicus, UniProt P33535)
T1 construct: from tissue; host or cells: striatum (membrane preparation)
Assay: MOR agonist activity using [35S]GTPgS binding assay in striatal membranes
Assay type: biochemical
Procedure: To assess the mu opiate receptor (MOR) agonist activity of positive compounds from the FLNA screening, compounds were tested in a [^35S]GTPgS binding assay using striatal membranes. […] This assay measures a functional consequence of receptor occupancy at one of the earliest receptor-mediated events. The assay permits for traditional pharmacological parameters of potency, efficacy and antagonist affinity, with the advantage that agonist measures are not subjected to amplification or other modulation that may occur when analyzing parameters further downstream of the receptor.
Thus, striatal tissue was homogenized in 10 volumes of ice cold 25 mM HEPES buffer, pH 7.4, which contained 1 mM EGTA, 100 mM sucrose, 50 mg/ml leupeptin, 0.04 mM PMSF, 2 mg/ml soybean trypsin inhibitor and 0.2% 2-mercaptoethanol. The homogenates were centrifuged at 800×g for 5 minutes and the supernatants were centrifuged at 49,000×g for 20 minutes. The resulting pellets were suspended in 10 volume of reaction buffer, which contained 25 mM HEPES, pH 7.5, 100 mM NaCl, 50 mg/ml leupeptin, 2 mg/ml soybean trypsin inhibitor, 0.04 mM PMSF and 0.02% […].
The resultant striatal membrane preparation (200 mg) was admixed and maintained (incubated) at 30° C. for 5 minutes in reaction buffer as above that additionally contained 1 mM MgCl2 and 0.5 nM [^35S]GTPgS (0.1 mCi/assay, PerkinElmer Life and Analytical Sciences) in a total volume of 250 ml and continued for 5 minutes in the absence or presence of 0.1-10 mM of an assayed compound of interest. The reaction was terminated by dilution with 750 ml of ice-cold reaction buffer that contained 20 mM MgCl2 and 1 mM EGTA and immediate centrifugation at 16,000×g for 5 minutes.
The resulting pellet was solubilized by sonicating for 10 seconds in 0.5 ml of immunoprecipitation buffer containing 0.5% digitonin, 0.2% sodium cholate and 0.5% NP-40. Normal rabbit serum (1 ml) was added to 1 ml of lysate and incubated at 25° C. for 30 minutes. Nonspecific immune complexes were removed by incubation with 25 ml of protein A/G-conjugated agarose beads at 25° C. for 30 minutes followed by centrifugation at 5,000×g at 4° C. for 5 minutes. The supernatant was divided and separately incubated at 25° C. for 30 minutes with antibodies raised against Gao proteins (1:1,000 dilutions).
The immunocomplexes so formed were collected by incubation at 25° C. for 30 minutes with 40 ml of agarose-conjugated protein A/G beads and centrifugation at 5,000×g at 4° C. for 5 minutes. The pellet was washed and suspended in buffer containing 50 mM Tris-HCl, pH 8.0, and 1% NP-40. The radioactivity in the suspension was determined by liquid scintillation spectrometry. […] DAMGO (1 or 10 mM) was used as a positive control.

[1] = 0.1 μM compound as agonist, Series C-1 table
[2] = 1 μM compound as agonist, Series C-1 table
[3] = 0.1 μM compound as agonist, Series C-2 table
[4] = 1 μM compound as agonist, Series C-2 table

T1 sequence (P33535 whole entry): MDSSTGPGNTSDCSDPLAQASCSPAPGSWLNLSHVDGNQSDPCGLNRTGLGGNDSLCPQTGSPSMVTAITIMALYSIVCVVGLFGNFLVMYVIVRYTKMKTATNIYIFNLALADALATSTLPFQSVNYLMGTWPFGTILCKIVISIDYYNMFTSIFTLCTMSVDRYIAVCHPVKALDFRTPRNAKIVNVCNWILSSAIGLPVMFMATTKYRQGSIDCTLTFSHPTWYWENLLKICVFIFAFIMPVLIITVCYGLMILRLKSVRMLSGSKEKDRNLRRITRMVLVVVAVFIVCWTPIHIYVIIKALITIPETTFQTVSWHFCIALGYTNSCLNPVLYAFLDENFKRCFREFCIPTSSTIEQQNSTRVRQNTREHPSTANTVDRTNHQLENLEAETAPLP

Compound	MOR agonist activity ([35S]GTPgS binding to Gao) [1]	MOR agonist activity ([35S]GTPgS binding to Gao) (1 μM + BFNA, Series C-1 table)	MOR agonist activity ([35S]GTPgS binding to Gao) [2]	MOR agonist activity ([35S]GTPgS binding to Gao) [3]	MOR agonist activity ([35S]GTPgS binding to Gao) (1 μM + BFNA, Series C-2 table)	MOR agonist activity ([35S]GTPgS binding to Gao) [4]
O=S(=O)(c1ccc(-c2ccccc2)cc1)N1CCC2(CC1)OCCN2S(=O)(=O)c1ccc(-c2ccccc2)cc1 [Compound C0010]	136.5%	89.1%	307.0%			
CC(=O)c1ccc(S(=O)(=O)N2CCC3(CC2)OCCN3S(=O)(=O)c2ccc(C(C)=O)cc2)cc1 [Compound C0011]	217.0%	19.0%	305.0%	217.0%	19.0%	305.0%
O=S(=O)(c1ccc(C(F)(F)F)cc1)N1CCC2(CC1)OCCN2S(=O)(=O)c1ccc(C(F)(F)F)cc1 [Compound C0012]	96.8%	184.4%	224.8%			
CC(=O)Nc1ccc(S(=O)(=O)N2CCC3(CC2)OCCN3S(=O)(=O)c2ccc(NC(C)=O)cc2)cc1 [Compound C0013]	156.6%	39.6%	301.2%			
Cc1cccc(S(=O)(=O)N2CCC3(CC2)OCCN3S(=O)(=O)c2cccc(C)c2)c1 [Compound C0014]	144.9%	76.3%	153.5%			
Cc1ccccc1S(=O)(=O)N1CCC2(CC1)OCCN2S(=O)(=O)c1ccccc1C [Compound C0015]	138.7%	126.8%	204.7%			
O=S(=O)(c1ccccc1)N1CCC2(CC1)OCCN2S(=O)(=O)c1ccccc1 [Compound C0016]	172.7%	96.7%	230.5%			
COc1ccc(C(=O)N2CCC3(CC2)OCCN3C(=O)c2ccc(OC)cc2)cc1 [Compound C0017]	153.8%	94.1%	284.5%			
COc1ccc(C(=O)N2CCC3(CC2)OCCN3S(=O)(=O)c2ccc(OC)cc2)cc1 [Compound C0018]	195.5%	106.5%	247.7%			
COc1ccc(C(=O)N2CCOC23CCN(S(=O)(=O)c2ccc(OC)cc2)CC3)cc1 [Compound C0019]	104.4%	52.8%	176.6%			
O=C(O)c1ccc(C(=O)N2CCC3(CC2)OCCN3S(=O)(=O)c2ccc(C(=O)O)cc2)cc1 [Compound C0021]	159.7%	90.7%	192.0%			
O=C(c1ccc([N+](=O)[O-])cc1)N1CCC2(CC1)OCCN2S(=O)(=O)c1ccc([N+](=O)[O-])cc1 [Compound C0022]	194.3%	13.4%	328.7%			
CNc1ccc(S(=O)(=O)N2CCC3(CC2)OCCN3S(=O)(=O)c2ccc(NC)cc2)cc1 [Compound C0024]	178.4%	59.3%	229.6%			
O=S(=O)(c1ccc(Br)cc1)N1CCC2(CC1)OCCN2S(=O)(=O)c1ccc(Br)cc1 [Compound C0025]	235.7%	80.2%	320.7%			
COc1ccc(S(=O)(=O)N2CCC3(CC2)NCCO3)cc1 [Compound C0026]				207.2%	21.2%	288.4%
COc1ccc(S(=O)(=O)N2CCOC23CCNCC3)cc1 [Compound C0027]				233.2%	72.2%	313.9%
